Data published in patent US20040097594A1 (priority 1998, published 2004).
Like-named read-outs stand apart in the source and are kept apart here.

Columns and labels:
[1] = molecular target: HIV-1 protease (Human immunodeficiency virus type 1 group M subtype B, UniProt P04585); test: biochemical
[2] = test system: HIV-1 (strain IIIB); test: microbe, parasite or virus in culture; format: cell-based; conditions: lower line of each compound's entry, read-out: IC50 (MT-4 cells)
[3] = HIV-1 protease, upper line of each compound's entry, read-out: Ki (enzyme)
[4] = Human immunodeficiency virus 1, 120 h, MT4 cells infected with HIV-1 strain IIIB, 5 days

SMILES: Nc1ccc(S(=O)(=O)N(C[C@@H](O)[C@H](Cc2ccccc2)NC(=O)O[C@H]2CO[C@H]3OCC[C@H]32)OC2CCOCC2)cc1 [Compound 146, (3R,3aS,6aR)hexahydrofuro[2,3-b]furan-3-yl 3-[[(4-aminophenyl)sulfonyl](tetrahydro-2H-pyran-4-yloxy)amino]-1-benzyl-2-hydroxypropylcarbamate]
- Ki [1, 3]: < 1 nM
- IC50 [2, 4]: ≤ 100 nM

SMILES: CC(C)ON(C[C@@H](O)[C@H](Cc1ccccc1)NC(=O)O[C@H]1CCOC1)S(=O)(=O)c1ccc2[nH]c(=O)[nH]c2c1 [Compound 62, (3S)tetrahydro-3-furanyl N-((1S,2R)-1-benzyl-2-hydroxy-3-isopropoxy[(2-oxo-2,3-dihydro-1H-1,3-benzimidazol-5-yl)sulfonyl]aminopropyl)carbamate]
- Ki [1, 3]: 1 to 10 nM
- IC50 [2, 4]: > 1000 nM

SMILES: O=C(N[C@@H](Cc1ccccc1)[C@H](O)CN(OC1CCCC1)S(=O)(=O)c1cccc(O)c1)O[C@H]1CO[C@H]2OCC[C@H]21 [Compound 44, (3R,3aS,6aR)hexahydrofuro[2,3-b]furan-3-yl N-((1S,2R)-1-benzyl-3-(cyclopentyloxy)[(3-hydroxyphenyl)sulfonyl]amino-2-hydroxypropyl)carbamate]
- Ki [1, 3]: < 1 nM
- IC50 [2, 4]: ≤ 100 nM

SMILES: O=C(N[C@@H](Cc1ccccc1)[C@H](O)CN(OC1CCCC1)S(=O)(=O)c1ccc2[nH]ncc2c1)OC1CO[C@H]2OCC[C@@H]12 (stereo partly drawn) [Compound 57, (3aS,6aR)Hexahydrofuro[2,3-b]furan-3-yl N-(1S,2R)-1-benzyl-3-[(cyclopentyloxy)(1H-indazol-5-ylsulfonyl)amino]-2-hydroxypropylcarbamate]
- Ki [1, 3]: < 1 nM
- IC50 [2, 4]: ≤ 100 nM

SMILES: CCC(C)ON(C[C@@H](O)[C@H](Cc1ccccc1)NC(=O)OC1CO[C@H]2OCC[C@@H]12)S(=O)(=O)c1ccc(OC)cc1 (stereo partly drawn) [Compound 68, (3R,3aS,6aR)hexahydrofuro[2,3-b]furan-3-yl N-((1S,2R)-1-benzyl-3-sec-butoxy[(4-methoxyphenyl)sulfonyl]amino-2-hydroxypropyl)carbamate]
- Ki [1, 3]: < 1 nM
- IC50 [2, 4]: ≤ 100 nM

SMILES: CC(C)(C)OC(=O)N[C@@H](Cc1ccccc1)[C@H](O)CN(OC1CCCC1)S(=O)(=O)c1ccc2nc(N)[nH]c2c1 [Compound 106, Tert-butyl N-(1S,2R)-1-benzyl-3-[(cyclopentyloxy)(2-amino-1H-benzimidazol-5-ylsulfonyl)amino]-2-hydroxypropylcarbamate]
- Ki [1, 3]: < 1 nM
- IC50 [2, 4]: 100 to 500 nM

SMILES: NCCNc1cccc(S(=O)(=O)N(CC(O)C(Cc2ccccc2)NC(=O)OC2COC3OCCC23)OC2CCCC2)c1 [Compound 83, (3R,3aS,6aR)hexahydrofuro[2,3-b]furan-3-yl N-(1S,2R)-3-[(3[(2-aminoethyl)amino]phenylsulfonyl)(cyclopentyloxy)amino]-1-benzyl-2-hydroxypropylcarbamate and (3S,3aR,6aS)hexahydrofuro[2,3-b]furan-3-yl N-(1S,2R)-3-[(3[(2-aminoethyl)amino]phenylsulfonyl)(cyclopentyloxy)amino]-1-benzyl-2-hydroxypropylcarbamate]
- Ki [1, 3]: < 1 nM
- IC50 [2, 4]: 100 to 500 nM

SMILES: COc1ccc(S(=O)(=O)N(C[C@@H](O)[C@H](Cc2ccccc2)NC(=O)OC(C)(C)C)OC2CCCCC2)cc1 [Compound 23, tert-butyl N-((1S,2R)-1-benzyl-3-(cyclohexyloxy)[(4-methoxyphenyl)sulfonyl]amino-2-hydroxypropyl)carbamate]
- Ki [1]: 1 to 10 nM
- IC50 [2, 4]: > 1000 nM

SMILES: CN(C)C(=O)Nc1nc2cc(S(=O)(=O)N(C[C@@H](O)[C@H](Cc3ccccc3)NC(=O)OC(C)(C)C)OC3CCCC3)ccc2[nH]1 [Compound 14, Tert-butyl N-(1S,2R)-1-benzyl-3-[(cyclopentyloxy)(2-[(dimethylamino-carbonyl)amino]-1H-benzimidazol-5-ylsulfonyl)amino]-2-hydroxypropylcarbamate]
- Ki [1, 3]: < 1 nM
- IC50 [2, 4]: 100 to 500 nM

SMILES: COc1ccc(S(=O)(=O)N(C[C@@H](O)[C@H](Cc2ccccc2)NC(=O)c2ccccc2C)OC2CCCC2)cc1 [Compound 26, N^1-((1S,2R)-1-benzyl-3-(cyclopentyloxy)[(4-methoxyphenyl)sulfonyl]amino-2-hydroxypropyl)-2-methylbenzamide]
- Ki [1, 3]: 1 to 10 nM
- IC50 [2, 4]: > 1000 nM

SMILES: COC(=O)Nc1nc2cc(S(=O)(=O)N(C[C@@H](O)[C@H](Cc3ccccc3)NC(=O)OC3CO[C@H]4OCC[C@@H]34)OC3CCCC3)ccc2[nH]1 (mixture of isomers) [Compound 54, (3aS,6aR)Hexahydrofuro[2,3-b]furan-3-yl N-(1S,2R)-1-benzyl-3-[(cyclopentyloxy)(2-[(methoxycarbonyl)amino]-1H benzimidazol-5-ylsulfonyl)amino]-2-hydroxypropylcarbamate]
- Ki [1, 3]: < 1 nM
- IC50 [2, 4]: ≤ 100 nM

SMILES: CN(C(=O)OC(C)(C)C)c1cccc(S(=O)(=O)N(C[C@@H](O)[C@H](Cc2ccccc2)NC(=O)O[C@H]2CO[C@H]3OCC[C@H]32)OC2CCCC2)c1 [Compound 128]
- Ki [1, 3]: > 100 nM
- IC50 [2, 4]: > 1000 nM

SMILES: O=C(N[C@@H](Cc1ccccc1)[C@H](O)CN(OC1CCCC1)S(=O)(=O)c1ccc2c(c1)OCCO2)OC1CO[C@H]2OCC[C@@H]12 (stereo partly drawn) [Compound 139, (3R,3aS,6aR)hexahydrofuro[2,3-b]furan-3-yl N-(1S,2R)-1-benzyl-3-[(cyclopentyloxy)(2,3-dihydro-1,4-benzodioxin-6-ylsulfonyl)amino]-2-hydroxypropylcarbamate]
- Ki [1]: < 1 nM
- IC50 [2, 4]: ≤ 100 nM

SMILES: COc1cccc(S(=O)(=O)N(C[C@@H](O)[C@H](Cc2ccccc2)NC(=O)O[C@H]2CO[C@H]3OCC[C@H]32)OC2CCCC2)c1 [Compound 123, (3R,3aS,6aR)hexahydrofuro[2,3-b]furan-3-yl N-[(1S,2R)-1-benzyl-3-((cyclopentyloxy)[(3-methoxyphenyl)sulfonyl]amino)-2-hydroxypropyl]carbamate]
- Ki [1, 3]: < 1 nM
- IC50 [2, 4]: ≤ 100 nM

SMILES: O=C(O)CNc1cccc(S(=O)(=O)N(CC(O)C(Cc2ccccc2)NC(=O)OC2COC3OCCC23)OC2CCCC2)c1 [Compound 35, 2-2-(3-[[(2R,3S)-3-([(3R,3aS,6aR)hexahydrofuro[2,3-b]furan-3-yloxy]carbonylamino)-hydroxy-4-phenylbutyl](cyclopentyloxy)amino]sulfonylanilino)acetic acid and 2-2-(3-[[(2R,3S)-3-([(3S,3aR,6aS)hexahydrofuro[2,3-b]furan-3-yloxy]carbonylamino)-hydroxy-4-phenylbutyl](cyclopentyloxy)amino]sulfonylanilino)acetic acid]
- Ki [1, 3]: < 1 nM
- IC50 [2, 4]: > 1000 nM

SMILES: NC(=O)C[C@H](NC(=O)c1ccc2ccccc2n1)C(=O)N[C@@H](Cc1ccccc1)[C@H](O)CN(OC1CCCC1)S(=O)(=O)c1ccc2cn[nH]c2c1 [Compound 52]
- Ki [1, 3]: < 1 nM
- IC50 [2, 4]: ≤ 100 nM

SMILES: O=C(N[C@@H](Cc1ccccc1)[C@@H](CN(OC1CCCC1)S(=O)(=O)c1ccc2c(c1)OCO2)OP(=O)(O)O)O[C@H]1CO[C@H]2OCC[C@H]21 [Compound 143, (3R,3aS,6aR)hexahydrofuro[2,3-b]furan-3-yl N-[(1S,2R)-3-[(1,3-benzodioxol-5-ylsulfonyl)(cyclopentyloxy)amino]-1-benzyl-2-(phosphonooxy)propyl]carbamate]
- Ki [1, 3]: < 1 nM
- IC50 [2, 4]: ≤ 100 nM

SMILES: COC(=O)Nc1nc2cc(S(=O)(=O)N(C[C@@H](O)[C@H](Cc3ccccc3)NC(=O)OC(C)(C)C)OC3CCCC3)ccc2[nH]1 [Compound 130, tert-Butyl-N-((1S,2R)-1-benzyl-3-(cyclopentyloxy)(2-[(methoxycarbonyl)amino]benzimidazol-5-ylsulfonyl)amino-2-hydroxypropyl)carbamate]
- Ki [1, 3]: < 1 nM
- IC50 [2, 4]: ≤ 100 nM

SMILES: CC(C)ON(C[C@@H](O)[C@H](Cc1ccccc1)NC(=O)OC(C)(C)C)S(=O)(=O)c1ccc2[nH]c(=O)[nH]c2c1 [Compound 4]
- Ki [1, 3]: 10 to 100 nM
- IC50 [2, 4]: > 1000 nM

SMILES: COc1ccc(S(=O)(=O)N(C[C@@H](O)[C@H](Cc2ccccc2)NC(=O)OC(C)(C)C)OC2CCOC2)cc1 (stereo partly drawn) [Compound 20, tert-butyl N-(1S,2R)-1-benzyl-2-hydroxy-3-[[(4-methoxyphenyl)sulfonyl](tetrahydro-3-furanyloxy)amino]propylcarbamate]
- Ki [1, 3]: 1 to 10 nM
- IC50 [2, 4]: > 1000 nM

SMILES: CC(=O)Nc1nc2ccc(S(=O)(=O)N(C[C@@H](O)[C@H](Cc3ccccc3)NC(=O)OC3COCOC3)OC3CCCC3)cc2s1 [Compound 114]
- Ki [1, 3]: < 1 nM
- IC50 [2, 4]: ≤ 100 nM

SMILES: NC(=O)COc1cccc(S(=O)(=O)N(C[C@@H](O)[C@H](Cc2ccccc2)NC(=O)OC2CO[C@H]3OCC[C@@H]23)OC2CCCC2)c1 (stereo partly drawn) [Compound 136, (3R,3aS,6aR)hexahydrofuro[2,3-b]furan-3-yl N-(1S,2R)-3-[[3-(2-amino-2-oxoethoxy)phenyl]sulfonyl(cyclopentyloxy)amino]-1-benzyl-2-hydroxypropylcarbamate]
- Ki [1, 3]: < 1 nM
- IC50 ([2]; Human immunodeficiency virus 1, IIIB, MT4, 120 h, […]): ≤ 100 nM

SMILES: O=C(N[C@@H](Cc1ccccc1)[C@H](O)CN(OC1CCOCC1)S(=O)(=O)c1cccc(O)c1)O[C@H]1CO[C@H]2OCC[C@H]21 [Compound 148, (3R,3aS,6aR)hexahydrofuro[2,3-b]furan-3-yl 1-benzyl-2-hydroxy-3-[[(3-hydroxyphenyl)sulfonyl](tetrahydro-2H-pyran-4-yloxy)amino]propylcarbamate]
- Ki [1, 3]: < 1 nM
- IC50 [2, 4]: ≤ 100 nM

SMILES: COc1ccc(S(=O)(=O)N(C[C@@H](O)[C@H](Cc2ccccc2)NC(=O)O[C@@H]2CO[C@H]3OCC[C@H]32)OC2CCCC2)cc1 [Compound 117]
- Ki [1, 3]: > 100 nM
- IC50 [2, 4]: 500 to 1000 nM

SMILES: CCC(CC)ON(C[C@@H](O)[C@H](Cc1ccccc1)NC(=O)O[C@H]1CO[C@H]2OCC[C@H]21)S(=O)(=O)c1ccc(N)cc1 [Example 163, (3R,3aS,6aR)hexahydrofuro[2,3-b]furan-3-yl(1S,2R)-3-[[(4-aminophenyl)sulfonyl](1-ethylpropoxy)amino]-1-benzyl-2-hydroxypropylcarbamate]
- Ki [1, 3]: < 1 nM
- IC50 [2, 4]: ≤ 100 nM
